Strand notation (5' to 3'): a small letter for the sugar, then the base; units joined by * are phosphorothioate-linked, units joined directly phosphodiester-linked; [ ] holds rarer units or linkages, { } end groups; capitals alone tell only the bases. e = 2'-O-(2-methoxyethyl) (MOE); [5mC] = 5-methylcytosine; d = 2'-deoxy (DNA)
How the values were obtained:
[1] = system: human PKK mRNA; assay: Antisense inhibition of human PKK mRNA in HepaRG cells, 5,000 nM (Example 2); format: cell-based
In short: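 HepaRG cells, 20,000 per well, were electroporated with 5,000 nM MOE gapmer (phosphorothioate, 5-methylcytosine) and incubated about 24 hours. PKK mRNA was quantified by qRT-PCR with primer probe set RTS3454, normalized to RIBOGREEN total RNA, and expressed as percent inhibition versus untreated controls.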

[2] = system: human PKK mRNA; assay: Dose-dependent antisense inhibition of human PKK in HepaRG cells, 0.19-5.00 uM (Example 5); format: cell-based; conditions: for percent inhibition of PKK mRNA, 0.19 μM: 0.19 μM antisense oligonucleotide; for percent inhibition of PKK mRNA, 0.56 μM: 0.56 μM antisense oligonucleotide; for percent inhibition of PKK mRNA, 1.67 μM: 1.67 μM antisense oligonucleotide; for percent inhibition of PKK mRNA, 5.00 μM: 5.00 μM antisense oligonucleotide
In short: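 HepaRG cells (20,000/well) were electroporated with antisense oligonucleotide at 0.19, 0.56, 1.67 and 5.00 μM and treated for about 16 hours. PKK mRNA was quantified by qRT-PCR with primer probe set RTS3454, normalised to RIBOGREEN total RNA, and IC50 was derived per oligonucleotide.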

[3] = HepaRG cells, electroporation, 5,000 nM antisense oligonucleotide, approx. 24 hours, primer probe set RTS3454, relative to untreated control cells, Table 11
[4] = HepaRG cells, electroporation, approximately 16 hours, Table 38
[5] = 4 point dose response, HepaRG cells, Table 38
[6] = HepaRG cells, electroporation, approximately 16 hours, Table 40
[7] = 4 point dose response, HepaRG cells, Table 40
[8] = human PKK mRNA in HepaRG cells, 5-10-5 gapmers, Table 14
[9] = HepaRG cells, electroporation, approximately 16 hours, Table 39
[10] = HepaRG cells, electroporation, approximately 16 hours, Table 36
[11] = 4 point dose response, HepaRG cells, Table 36
[12] = HepaRG cells, electroporation, approximately 16 hours, Table 37
[13] = 4 point dose response, HepaRG cells, Table 37
[14] = human PKK mRNA, HepaRG cells, 5-10-5 motif oligonucleotides targeting SEQ ID NO: 1 and 10
[15] = HepaRG cells, electroporation, approximately 16 hours, Table 35
[16] = Table 8, HepaRG cells, electroporation with 5,000 nM antisense oligonucleotide, approx. 24 hours, PKK mRNA by RT-PCR (RTS3454), relative to untreated control cells
[17] = Table 34, HepaRG, electroporation, ~16 h

546358 (antisense e[5mC]*eT*eG*eA*eG*d[5mC]*dT*dT*dT*dT*d[5mC]*d[5mC]*dA*dT*d[5mC]*eA*e[5mC]*eT*eG*e[5mC]) [compound 546358]
% inhibition [1, 3]: 83% | percent inhibition of PKK at 0.19 μM [2, 4]: 0% | percent inhibition of PKK at 0.56 μM [2, 4]: 19% | percent inhibition of PKK at 1.67 μM [2, 4]: 71% | percent inhibition of PKK at 5.00 μM [2, 4]: 80% | IC50 [2, 5]: 1300 nM

547520 (antisense eT*e[5mC]*eA*eG*e[5mC]*d[5mC]*dA*dG*dA*d[5mC]*dA*dT*dT*dG*dT*e[5mC]*e[5mC]*eT*e[5mC]*eA) [compound 547520]
% inhibition [1, 3]: 76% | percent inhibition of PKK at 0.19 μM [2, 6]: 0% | percent inhibition of PKK at 0.56 μM [2, 6]: 25% | percent inhibition of PKK at 1.67 μM [2, 6]: 66% | percent inhibition of PKK at 5.00 μM [2, 6]: 64% | IC50 [2, 7]: 1100 nM

546853 (eA*e[5mC]*eA*eG*eT*dA*dT*d[5mC]*dA*d[5mC]*dT*dG*dT*d[5mC]*d[5mC]*eT*eA*eT*eA*eT; antisense) [compound 546853]
% inhibition [1, 8]: 86% | percent inhibition of PKK at 0.19 μM [2, 9]: 47% | percent inhibition of PKK at 0.56 μM [2, 9]: 64% | percent inhibition of PKK at 1.67 μM [2, 9]: 84% | IC50 ([2]; 4 point dose response, HepaRG cells, Table 39): 200 nM | percent inhibition of PKK mRNA, 0.19 μM ([2]; HepaRG cells): 4% | percent inhibition of PKK mRNA, 0.56 μM ([2]; HepaRG cells): 49% | percent inhibition of PKK mRNA, 1.67 μM ([2]; HepaRG cells): 74% | percent inhibition of PKK mRNA, 5.00 μM ([2]; HepaRG cells): 92% | IC50 ([2]; HepaRG cells, 0.19-5.00 μM): 800 nM

546986 (e[5mC]*eA*eG*eG*eA*dT*dA*dG*dA*dA*d[5mC]*dT*dG*dA*dT*eG*eG*eT*e[5mC]*e[5mC]; antisense) [compound 546986]
% inhibition ([1]; HepaRG cells, 5,000 nM antisense oligonucleotide, 5-10-5 gapmers, Table 16): 91% | percent inhibition of PKK at 0.19 μM [2, 10]: 31% | percent inhibition of PKK at 0.56 μM [2, 10]: 49% | percent inhibition of PKK at 1.67 μM [2, 10]: 77% | percent inhibition of PKK at 5.00 μM [2, 10]: 89% | IC50 [2, 11]: 500 nM | percent inhibition of PKK mRNA, 0.19 μM ([2]; HepaRG cells): 7% | percent inhibition of PKK mRNA, 0.56 μM ([2]; HepaRG cells): 28% | percent inhibition of PKK mRNA, 1.67 μM ([2]; HepaRG cells): 69% | percent inhibition of PKK mRNA, 5.00 μM ([2]; HepaRG cells): 86% | IC50 ([2]; HepaRG cells, 0.19-5.00 μM): 1100 nM

546855 (eA*eT*eA*eA*e[5mC]*dA*dG*dT*dA*dT*d[5mC]*dA*d[5mC]*dT*dG*eT*e[5mC]*e[5mC]*eT*eA; antisense) [compound 546855]
% inhibition [1, 8]: 87% | percent inhibition of PKK at 0.19 μM [2, 12]: 18% | percent inhibition of PKK at 0.56 μM [2, 12]: 7% | percent inhibition of PKK at 1.67 μM [2, 12]: 30% | percent inhibition of PKK at 5.00 μM [2, 12]: 82% | IC50 [2, 13]: 2200 nM

547647 (eG*eT*e[5mC]*e[5mC]*eT*dA*dT*dA*dT*d[5mC]*dA*d[5mC]*dT*dG*dT*eA*e[5mC]*e[5mC]*eT*eA; antisense) [compound 547647]
% inhibition [1, 14]: 92% | percent inhibition of PKK at 0.19 μM [2, 15]: 1% | percent inhibition of PKK at 0.56 μM [2, 15]: 70% | percent inhibition of PKK at 1.67 μM [2, 15]: 72% | IC50 ([2]; 4 point dose response, HepaRG cells, Table 35): 800 nM

546429 (eG*e[5mC]*e[5mC]*e[5mC]*eA*d[5mC]*d[5mC]*dA*dA*d[5mC]*dA*dA*dT*d[5mC]*dT*e[5mC]*eT*eG*eG*eT; antisense) [compound 546429]
% inhibition ([1]; HepaRG cells, electroporation, 5,000 nM antisense oligonucleotide, approx. 24 hours, primer probe set RTS3454, relative to untreated control cells, Table 12): 84% | percent inhibition of PKK at 0.19 μM [2, 4]: 6% | percent inhibition of PKK at 0.56 μM [2, 4]: 10% | percent inhibition of PKK at 1.67 μM [2, 4]: 44% | percent inhibition of PKK at 5.00 μM [2, 4]: 69% | IC50 [2, 5]: 2300 nM

546253 (eG*eT*e[5mC]*eT*e[5mC]*dT*dT*dG*dG*d[5mC]*dA*dA*dA*d[5mC]*dA*eT*eT*e[5mC]*eA*e[5mC]; antisense) [compound 546253]
% inhibition [1, 16]: 98% | percent inhibition of PKK at 0.19 μM [2, 17]: 1% | percent inhibition of PKK at 0.56 μM [2, 17]: 13% | percent inhibition of PKK at 1.67 μM [2, 17]: 46% | percent inhibition of PKK at 5.00 μM [2, 17]: 81% | IC50 ([2]; Table 34, PKK mRNA, HepaRG, electroporation, ~16 h): 1700 nM

546268 (e[5mC]*eT*eT*e[5mC]*e[5mC]*dT*dT*dA*d[5mC]*dA*dG*dT*d[5mC]*dT*dT*e[5mC]*eT*eG*eG*eG; antisense) [compound 546268]
% inhibition [1, 16]: 93% | percent inhibition of PKK at 0.19 μM [2, 15]: 56% | percent inhibition of PKK at 0.56 μM [2, 15]: 50% | percent inhibition of PKK at 1.67 μM [2, 15]: 82% | percent inhibition of PKK at 5.00 μM [2, 15]: 93% | percent inhibition of PKK at 5.00 μM ([2]; HepaRG cells, electroporation, approximately 16 hours, Table 41): 92% | percent inhibition of PKK at 0.19 0μM ([2]; 0.19 0μM, HepaRG cells, electroporation, approximately 16 hours, Table 41): 0% | percent inhibition of PKK at 0.56 0μM ([2]; 0.56 0μM, HepaRG cells, electroporation, approximately 16 hours, Table 41): 71% | percent inhibition of PKK at 1.67 1μM ([2]; 1.67 1μM, HepaRG cells, electroporation, approximately 16 hours, Table 41): 92% | IC50 ([2]; 4 point dose response, HepaRG cells, Table 41): 500 nM

547009 (eA*eA*eT*eT*eG*dG*dT*dG*dG*dT*dG*dG*dG*dA*dT*eT*eG*eG*eT*eG; antisense) [compound 547009]
% inhibition ([1]; HepaRG cells, 5,000 nM antisense oligonucleotide, 5-10-5 gapmers, Table 17): 73% | percent inhibition of PKK at 0.19 μM [2, 6]: 0% | percent inhibition of PKK at 0.56 μM [2, 6]: 9% | percent inhibition of PKK at 1.67 μM [2, 6]: 21% | percent inhibition of PKK at 5.00 μM [2, 6]: 63% | IC50 [2, 7]: 3600 nM

547575 (eG*eG*eG*eA*eA*dA*d[5mC]*dT*d[5mC]*dT*dT*dT*d[5mC]*d[5mC]*dT*e[5mC]*eG*e[5mC]*e[5mC]*e[5mC]; antisense) [compound 547575]
% inhibition ([1]; Table 13, human PKK mRNA in HepaRG cells, 5-10-5 gapmers): 89% | percent inhibition of PKK at 0.19 μM [2, 12]: 0% | percent inhibition of PKK at 0.56 μM [2, 12]: 34% | percent inhibition of PKK at 1.67 μM [2, 12]: 82% | percent inhibition of PKK at 5.00 μM [2, 12]: 93% | IC50 [2, 13]: 1100 nM

548770 (antisense eT*eA*eA*e[5mC]*dA*dG*dT*dA*dT*d[5mC]*dA*d[5mC]*dT*eG*eT*e[5mC]*e[5mC]) [compound 548770]
% inhibition ([1]; human PKK mRNA, HepaRG cells, 5,000 nM antisense oligonucleotide, Table 18): 92% | percent inhibition of PKK at 0.19 μM [2, 10]: 26% | percent inhibition of PKK at 0.56 μM [2, 10]: 54% | percent inhibition of PKK at 1.67 μM [2, 10]: 77% | percent inhibition of PKK at 5.00 μM [2, 10]: 91% | IC50 [2, 11]: 500 nM | percent inhibition of PKK mRNA, 0.19 μM ([2]; HepaRG cells): 9% | percent inhibition of PKK mRNA, 0.56 μM ([2]; HepaRG cells): 0% | percent inhibition of PKK mRNA, 1.67 μM ([2]; HepaRG cells): 61% | percent inhibition of PKK mRNA, 5.00 μM ([2]; HepaRG cells): 92% | IC50 ([2]; HepaRG cells, 0.19-5.00 μM): 1700 nM

547636 (eG*eT*eA*eT*e[5mC]*dA*d[5mC]*dT*dG*dT*dA*d[5mC]*dT*dA*dG*eT*eT*eT*eT*e[5mC]; antisense) [compound 547636]
% inhibition [1, 14]: 86% | percent inhibition of PKK at 0.19 μM [2, 4]: 0% | percent inhibition of PKK at 0.56 μM [2, 4]: 24% | percent inhibition of PKK at 1.67 μM [2, 4]: 79% | percent inhibition of PKK at 5.00 μM [2, 4]: 94% | IC50 [2, 5]: 1100 nM

— US11840686B2, “Modulation of prekallikrein (PKK) expression” (Ionis Pharmaceuticals, Inc., priority 2013, dated 2023)
